Data reported in patent EP0229011A1, “Trisubstituted triazoles” (CIBA-GEIGY AG, priority 1986, dated 1987).

What was measured:
[1] = tested on: Elektroschock-induzierte Konvulsionen; test: Protection against electroshock-induced convulsions (rat); assay type: in vivo; details: po, Ratte, read-out: ED₅₀
Source text: (§1) Die neuen Verbindungen besitzen wertvolle pharmakologische Eigenschaften, insbesondere eine ausgeprägte antikonvulsive Wirksamkeit mit neuartigem Wirkungsspektrum. Die ausgezeichnete antikonvulsive Wirksamkeit der erfindungsgemäss bereitgestellten Verbindungen zeigt sich insbesondere an Primaten. […] Das neuartige Wirkungsspektrum der erfindungsgemässen Verbindungen kann beispielsweise durch ihr Verhalten in den nachstehenden pharmakologischen und biochemischen Epilepsiemodellen charakterisiert werden: • 1) Schutzwirkung gegen Elektroschock-induzierte Konvulsionen (Maus, Ratte): deutliche Aktivität in Dosen ab etwa 30 mg/kg p.o., für z.B. 5-Amino-1-(4-hexyl)-1M-1,2,3-triazol-4-carboxamid ED₅₀ = 100 mg/kg p.o. (Maus) bzw. […] Wirkung auf die GABA-Neuro-transmission und kein nachweisbarer Einfluss auf den GABA-Kata-bolismus; • 6) Kindling-Epilepsiemodell (Ratte): die Entwicklung sowohl der Nachentladung als auch der Symptomatologie wird stark verlangsamt.

[2] = tested on: Picrotoxin-induzierte Konvulsionen; test: Protection against picrotoxin-induced convulsions; assay type: in vivo; details: Maus, doses up to and including 300 mg/kg p.o.
Source text: as §1

[3] = tested on: experimentellen Strychninkrampf; test: Protection against experimental strychnine convulsions; assay type: in vivo, Maus; details: Mus musculus, po, read-out: ED₅₀
Source text: as §1

[4] = tested on: Metrazol-Antagonismus; test: Metrazol antagonism in the mouse; assay type: in vivo; details: po, Maus, read-out: ED₅₀
Source text: as §1

[5] = tested on: Elektroschock-induzierte Konvulsionen; test: Protection against electroshock-induced convulsions (mouse); assay type: in vivo; details: po, Maus, read-out: ED₅₀
Source text: as §1

[6] = tested on: durch Aluminiumoxidimplantation erzeugten fokalen Konvulsionen; test: Focal convulsions produced by aluminium oxide implantation in the rhesus monkey; assay type: in vivo, Rhesusaffen; details: daily doses of 50 mg/kg p.o., over the whole 15-day treatment
Source text: as §1

| SMILES | ED50 [1] | Schutzwirkung gegen Picrotoxin-induzierte Konvulsionen [2] | ED50 [3] | ED50 [4] | ED50 [5] | Anzahl der fokalen Konvulsionen [6] | Intensität der fokalen Konvulsionen [6] |
| --- | --- | --- | --- | --- | --- | --- | --- |
| CCCC(CC)n1nnc(C(N)=O)c1N (stereo not shown) [5-Amino-1-(4-hexyl)-1H-1,2,3-triazol-4-carboxamid] | 50 mg/kg | keine Wirkung feststellbar | 300 mg/kg | 210 mg/kg | 100 mg/kg |  |  |
| CCCC(CCC)n1nnc(C(N)=O)c1N [Beispiel 1, 5-Amino-1-(4-heptyl)-1H-1,2,3-triazol-4-carboxamid] |  |  |  |  |  | starke Abnahme | starke Abnahme |
